In patent US20150322033A1, “ANTIBACTERIAL AGENT” (priority 2012, published 2015):
In brackets after ≈: the same amount, converted by molar mass. Where two headings read alike, the source gives them in different places.

Assays:
[1] = system: S. aureus FDA209P (ATCC 6538P); experiment: microbe, parasite or virus in culture; format: cell-based, Staphylococcus aureus; details: for MIC: Staphylococcus aureus, read-out: MIC (mg/L) FDA209P
Procedure: (§1) S. aureus Mu50 (refer to Hiramatsu, K., Hanaki H., et al., J. Antimicrob. Chemother., 1997, 40(1), 135-6) or S. aureus FDA209P (ATCC 6538P) was cultured overnight at 37° C. in 4 mL of TBS (Tryptical Soy Broth, produced by Becton Dickinson) with shaking. After completion of the culture, the cells were suspended in fresh TBS to prepare a cell suspension showing an absorbance of 0.3 at 578 nm. Then, the cell suspension was diluted 500 times with CAMHB mentioned above.
(§2) CAMHB containing each test compound at each of the aforementioned concentrations was added to each well of a 96-well plate in a volume of 50 μL/well, the aforementioned cell suspension diluted 500 time was added to the well in a volume of 50 μL/well, and stationary culture was carried out overnight at 37° C.
(§3) MIC values (mg/L) of the flavones and quinolones against the strains were measured in the same manner as that of the measurement of MIC of Example 1, except that CAMHB containing each of the aforementioned flavones and quinolones prepared in Example 2 was used instead of CAMHB containing each of the test compounds.
(§4) MIC values of the flavones and quinolone for the strains were measured in the same manners as those of Example 1, except that S. aureus Mu50 NR-1 was also used as Staphylococcus aureus in addition to S. aureus FDA209P and S. aureus Mu50, cell suspensions of the strains were prepared.
(§5) In the same manner as that of Example 1, MIC values of M-246, M-21, J-Q21, and J-Q12.1 for Staphylococcus aureus were measured. M-246 and M-21 were obtained as commercial products, and as J-Q21 and J-Q12.1, those synthesized in Examples 6 and 7 were used.

S. aureus Mu50 = experiment: microbe, parasite or virus in culture; format: cell-based, Staphylococcus aureus; details: for MIC: Staphylococcus aureus; for MIC (mg/L) Mu50: Example 1, Tables 1 to 10
Procedure: as §1, §2, §3, §4, §5

[2] = MU50, read-out: MIC (mg/L) Mu50, Example 1, Tables 1 to 10
[3] = MU50, read-out: MIC (mg/L) Mu50

Row | Compound | MIC ([1]; Example 1, Tables 1 to 10) [mg/L] | MIC (S. aureus Mu50; [2]) [mg/L] | MIC (mg/L) FDA209P ([1]; Example 1, Tables 1 to 10) [mg/L] | MIC (mg/L) Mu50 (S. aureus Mu50) [mg/L] | other results
1 | COc1c(O)cc2oc(-c3ccc(O)cc3)c(OC)c(=O)c2c1O [compound 27] | > 128 | > 128 | – | – | –
2 | COc1cc2oc(-c3ccc(O)cc3)cc(=O)c2c(O)c1OC [compound 28] | > 128 | > 128 | – | – | –
3 | COc1cc(-c2oc3cc(O)c(OC)c(O)c3c(=O)c2OC)ccc1O [compound 29] | > 128 | > 128 | – | – | –
4 | COc1ccc(-c2cc(=O)c3c(OC)c(OC)c(OC)c(OC)c3o2)cc1 [compound 30] | 128 (≈ 344 µM) | > 128 | – | – | –
5 | COc1cc2oc(-c3ccc(O)c(O)c3)cc(=O)c2c(O)c1OC [compound 31] | > 128 | > 128 | – | – | –
6 | COc1ccc(-c2oc3cc4c(c(OC)c3c(=O)c2OC)OCO4)cc1 [compound 32] | – | – | >128 | >128 | –
7 | COc1ccc(-c2oc3cc(OC)c(OC)c(O)c3c(=O)c2OC)cc1O [compound 33] | > 128 | 128 (≈ 342 µM) | – | – | –
8 | COc1ccc(-c2cc(=O)c3c(O)c(O)c(O)cc3o2)cc1 [compound 34] | 128 (≈ 426 µM) | 128 (≈ 426 µM) | – | – | –
9 | CC(=O)Oc1cc(OC(C)=O)c2c(=O)cc(-c3ccc(OC(C)=O)c(OC(C)=O)c3)oc2c1 [compound 36] | > 128 | > 128 | – | – | –
10 | O=c1c(O)c(-c2ccc(O)c(O)c2)oc2c(O)c(O)cc(O)c12 [compound 37] | 128 (≈ 402 µM) | 62 (≈ 195 µM) | – | 64 (≈ 201 µM) | –
11 | COc1ccc(-c2cc(=O)c3c(OC)c(OC)c(OC)cc3o2)cc1O [compound 39] | 128 (≈ 357 µM) | 128 (≈ 357 µM) | – | – | –
12 | COc1ccc(-c2cc(=O)c3c(O)c(OC)c(OC)cc3o2)cc1O [compound 40] | 128 (≈ 372 µM) | 128 (≈ 372 µM) | – | – | –
13 | O=c1cc(-c2ccc(O)cc2)oc2cc(O)c(O)c(O)c12 [compound 41] | 128 (≈ 447 µM) | 128 (≈ 447 µM) | – | – | –
14 | COc1ccc(-c2cc(=O)c3c(OC)c(OC)c(OC)cc3o2)cc1OC [compound 42] | > 128 | > 128 | – | – | –
15 | COc1cc(OC)c2c(=O)cc(-c3cc(OC)c(OC)c(OC)c3)oc2c1 [compound 43] | > 128 | > 128 | – | – | –
16 | CC1(C)C=Cc2c(cc3oc(-c4ccc(O)cc4)cc(=O)c3c2O)O1 [compound 44] | > 128 | > 128 | – | – | –
17 | O=c1cc(-c2ccc(O)c(-c3c(O)cc(O)c4c(=O)cc(-c5ccc(O)cc5)oc34)c2)oc2cc(O)cc(O)c12 [compound 45] | > 128 | > 128 | – | – | –
18 | COc1cc(OC)c2c(=O)cc(-c3ccccc3)oc2c1C1=COC(C)(C)C1=O [compound 46] | 128 (≈ 326 µM) | > 128 | – | – | –
19 | COc1cc(O)c(CN(C)C)c2oc(-c3ccccc3)cc(=O)c12 [compound 47] | 128 (≈ 393 µM) | > 128 | – | – | –
20 | COc1cc(O)c(CN2CCCCC2)c2oc(-c3ccccc3)cc(=O)c12 [compound 48] | – | – | 128 (≈ 350 µM) | >128 | –
21 | COc1cc(O)c(CN2CC(C)CC(C)C2)c2oc(-c3ccccc3)cc(=O)c12 (stereo not drawn) [compound 49] | – | – | 128 (≈ 325 µM) | >128 | –
22 | COc1cc(O)c(CN2CCOCC2)c2oc(-c3ccccc3)cc(=O)c12 [compound 50] | > 128 | > 128 | – | – | –
23 | COc1cc(O)c(CN2CCN(C)CC2)c2oc(-c3ccccc3)cc(=O)c12 [compound 51] | – | – | 128 (≈ 336 µM) | 128 (≈ 336 µM) | –
24 | COc1cc(O)c(CN2CCCCC2C)c2oc(-c3ccccc3)cc(=O)c12 (stereo not drawn) [compound 52] | – | – | >128 | >128 | –
25 | O=c1c(O)c(-c2ccccc2S(=O)(=O)O)oc2ccccc12 [compound 54] | 128 (≈ 402 µM) | 128 (≈ 402 µM) | – | – | –

Row | Compound | MIC ([1]; Example 1, Tables 1 to 10) [mg/L] | MIC (S. aureus Mu50; [2]) [mg/L] | MIC (mg/L) FDA209P ([1]; Example 1, Tables 1 to 10) [mg/L] | MIC (mg/L) Mu50 (S. aureus Mu50) [mg/L] | other results
26 | Cc1c(-c2ccccc2)oc2c(C(=O)OCCN3CCCCC3)cccc2c1=O [compound 55] | 128 (≈ 327 µM) | > 128 | – | – | –
27 | CC(=O)C1C(=O)c2ccccc2N(c2ccccc2)C1=O (stereo not drawn) [compound 56] | > 128 | > 128 | – | – | –
28 | O=c1cc(-c2ccccc2)oc2ccc3ccccc3c12 [compound 57] | – | – | 128 (≈ 470 µM) | 128 (≈ 470 µM) | –
29 | O=c1cc(-c2ccccc2)oc2c1ccc1ccccc12 [compound 58] | – | – | 128 (≈ 470 µM) | 128 (≈ 470 µM) | –
30 | O=C(O)[C@H]1O[C@@H](Oc2cc3oc(-c4ccccc4)cc(=O)c3c(O)c2O)[C@H](O)[C@@H](O)[C@@H]1O [compound 59] | 128 (≈ 287 µM) | 128 (≈ 287 µM) | – | – | –
31 | O=c1cc(-c2ccc(O)c(O)c2)oc2c(C3OC(CO)C(O)C(O)C3O)c(O)cc(O)c12 (stereo not drawn) [compound 60] | – | – | >128 | >128 | –
32 | O=c1c(O)c(-c2ccc(O)c(O)c2)oc2c(OC3OC(CO)C(O)C(O)C3O)c(O)cc(O)c12 (stereo not drawn) [compound 61] | – | – | 128 (≈ 266 µM) | 128 (≈ 266 µM) | –
33 | O=C(O)C1OC(Oc2cc(O)c3c(=O)cc(-c4ccc(O)c(O)c4)oc3c2)C(O)C(O)C1O (stereo not drawn) [compound 62] | – | – | >128 | >128 | –
34 | O=c1cc(-c2ccc(OC3OC(CO)C(O)C(O)C3O)cc2)oc2cc(O)cc(O)c12 (stereo not drawn) [compound 63] | – | – | 128 (≈ 296 µM) | 128 (≈ 296 µM) | –
35 | O=c1cc(-c2ccc(O[C@@H]3O[C@H](CO)[C@@H](O)[C@H](O)[C@H]3O)c(O)c2)oc2cc(O)cc(O)c12 [compound 64] | > 128 | > 128 | – | – | –
36 | O=c1c(OC2OC(CO)C(O)C(O)C2O)c(-c2ccc(O)cc2)oc2cc(O)cc(O)c12 (stereo not drawn) [compound 65] | – | – | >128 | >128 | –
37 | O=C(O)C1OC(Oc2ccc(-c3cc(=O)c4c(O)cc(O)cc4o3)cc2O)C(O)C(O)C1O (stereo not drawn) [compound 67] | – | – | 128 (≈ 277 µM) | 128 (≈ 277 µM) | –
38 | O=c1cc(-c2ccc(O)cc2)oc2ccccc12 [compound 68, 2-(4-hydroxyphenyl)chromen-4-one] | 128 (≈ 537 µM) | 128 (≈ 537 µM) | – | – | –
39 | O=c1cc(-c2ccc(O)cc2)oc2cccc(O)c12 [compound 70] | 128 (≈ 503 µM) | 128 (≈ 503 µM) | – | – | –
40 | CCOC(=O)c1oc2cc(O)cc(O)c2c(=O)c1-c1ccc(OC)cc1 [compound 71] | 128 (≈ 359 µM) | 128 (≈ 359 µM) | – | – | –
41 | COc1ccc(-c2coc3cc(OC(C)=O)cc(OC(C)=O)c3c2=O)cc1 [compound 72] | > 128 | > 128 | – | – | –
42 | COc1ccc(-c2c(C)oc3cc(O)cc(O)c3c2=O)cc1OC [compound 73] | 128 (≈ 390 µM) | > 128 | – | – | –
43 | COc1ccc(-c2coc3cc(OC)cc(O)c3c2=O)cc1 [compound 74] | > 128 | > 128 | – | – | –
44 | CCOc1ccc(-c2coc3cc(OCC)cc(OCC)c3c2=O)cc1 [compound 75] | > 128 | > 128 | – | – | –
45 | COc1ccc(-c2coc3cc(OC)cc(OC)c3c2=O)cc1 [compound 76] | > 128 | > 128 | – | – | –
46 | CC(=O)Oc1cc(OC(C)=O)c2c(=O)c(-c3ccc4c(c3)OCCO4)c(C)oc2c1 [compound 77] | – | – | >128 | >128 | –
47 | COc1cc(O)c2c(=O)c(-c3ccc(OC4OC(CO)C(O)C(O)C4O)cc3)coc2c1 (stereo not drawn) [compound 78] | – | – | >128 | >128 | –
48 | COc1ccc(-c2coc3cc(OC(=O)N(C)C)cc(O)c3c2=O)cc1OC [compound 79] | – | – | – | – | MIC [1]: > 128 mg/L; MIC (S. aureus Mu50; [3]): > 128 mg/L
49 | COc1ccc(-c2coc3cc(OC(=O)N(C)C)cc(OC)c3c2=O)cc1OC [compound 80] | – | – | – | – | MIC [1]: > 128 mg/L; MIC (S. aureus Mu50; [3]): > 128 mg/L
